Measured values reported in patent US12155103B2, “Electrochemical storage devices comprising chelated metals” (The Regents of the University of Colorado, a body corporate, priority 2019, dated 2024).
Like-named read-outs stand apart in the source and are kept apart here.

Experiments:
[1] = Cyclic voltammetry and kinetic analysis on glassy carbon electrode; format: physicochemical; details: for E^0 / Heterogenous Reduction Rate Constant (k^0) / Diffusion Coefficient (Do): glassy carbon electrode
Protocol: Cyclic voltammetry was conducted using a Gamry Interface 1000 potentiostat, an Ag/AgCl aqueous reference electrode (3 M NaCl filling solution), a Pt wire counter electrode, and a 3-mm-diameter glassy carbon electrode. Half-cell experiments were conducted on a solution containing 5 mM K[Cr(PDTA)], 5 mM K4Fe(CN)6, and 0.125 M K2B4O7 at pH 9.
For an irreversible reaction, the peak current, ip, is given by equation (1).
[formula] where ip is in amperes, A is the electrode area (cm^2), CO° is the bulk concentration of oxidant (moles cm^−3), v is the potential sweep rate (V s^−1), DO is the diffusion coefficient of the oxidant, α is the charge transfer coefficient, and na is the number of […] involved in the rate-determining step. This equation reduces, at 25° C. to equation (2). ip=2.99*10^5n(αna)^1/2ACO^0DO^1/2v^1/2 (2) ip vs. v^1/2 was plotted, giving a straight line, with the slope being proportional to DO. Assuming an αna value of ½ allowed for the solving of DO. For a totally irreversible peak, the peak potential, Ep, is a function of scan rate, the difference between Ep and the formal potential, E^0′, being related to the standard heterogeneous rate constant, k°. The peak current can be expressed as show in equation (3).
[formula] Ln(ip) vs. (Ep−E°′), at different scan rates was plotting, with the intercept being proportional to and allowing solving for k°. E°′ was found in literature to be −1.31 V vs Ag/AgCl. The bulk concentration was 0.005 M, and na was 1 as there is only 1 electron being transferred. The area of the electrode is 0.0707 cm^2 from a 3 mm diameter glassy carbon electrode. Scan rates were done at 25, 50, 100, 200, and 500 mV s^−1. The slope of ip vs. v^1/2 was 0.0747, and the intercept of ln(ip) vs. (Ep−E°′) was −13.527.
Half-cell measurements were made using cyclic voltammetry (CV), which was conducted using a Gamry Interface 1000 potentiostat, an Ag/AgCl aqueous reference electrode (3 M NaCl filling solution), a Pt wire counter electrode, and a 3-mm-diameter glassy carbon working electrode, unless otherwise noted. Solutions were first sparged with an inert gas, for example N2, helium, neon, or argon, or combinations thereof, for at least 15 minutes and then kept under a blanket of an inert gas, such as N2, helium, neon, or argon, or combinations thereof, while tests were performed. All testing was performed at ambient temperatures. For carbon paper cyclic voltammetry experiments, the same setup was used as with the glassy carbon electrode, but the working electrode was a piece of carbon paper. For all chromium complexes and Fe(CN)6 solution 5 mM solutions were utilized for all CV experiments except those utilizing carbon paper electrodes which utilized 50 mM solutions. Other metal chelate complexes have concentrations that are specified in the figure captions.
Cyclic voltammetry (CV) was performed to compare the electrochemical behavior of FeDTPA and CrPDTA with their respective unchelated metal ions. […] Compared to their non-chelated counterparts, a greater electrochemical reversibility is observed in the chelated over the non-chelated metals (FIG. 32).

[2] = cited from earlier work; for reduction potential E^0: literature or previously reported values
[3] = cited from earlier work
[4] = Stability of iron-chelate complexes at pH 9
[5] = Maximum solubility at room temperature (saturated or concentrated solution, UV-Vis at 506 nm; bulk electrolysis for K2FeDTPA); format: physicochemical
Protocol: A saturated solution of KCrPDTA was prepared by dissolving KCrPDTA crystals in minimal DI water at room temperature such that crystals remain undissolved. The solution was agitated for 1 day. […] For the Na^+ cation with CrEDTA, the solubility was determined from a concentrated impure solution containing 3:1 NaCl. […] For the K2 with Fe-DTPA, the solubility was determined from a concentrated impure solution containing 3:1 KCl.

[6] = cited from earlier work; remark: listed apart in the source

| Molecule | E^0 [1] [V vs Ag/AgCl] | Heterogenous Reduction Rate Constant (k^0) [1] [×10⁻⁶ cm/s] | Binding Constant (Fe^+2) [3] | Binding Constant (Fe^+3) [3] | Stability at pH 9 [4] | further results |
| --- | --- | --- | --- | --- | --- | --- |
| [Cl][Cr]([Cl])[Cl] [CrCl3] | −0.64 | 10 | – | – | – | – |
| O=C(O)CN(CCN(CC(=O)O)CC(=O)O)CC(=O)O.[Cr] [CrEDTA] | – | – | – | – | – | Cr^3+/2+ reduction potential ([2]; near neutral pH): −0.99 V vs. SHE |
| O=C(O)CN(CCN(CC(=O)O)CC(=O)O)CCN(CC(=O)O)CC(=O)O [DTPA, diethylenetriaminepentaacetic acid] | – | – | 16.55 | 28.60 | – | – |
| [Fe+2].c1ccc(-c2ccccn2)nc1.c1ccc(-c2ccccn2)nc1.c1ccc(-c2ccccn2)nc1 [Fe(bpy)3] | – | – | 4.2 | 16.29 | Insoluble | reduction potential E^0 [2]: +0.903 V vs. Ag/AgCl |
| [Cl][Fe]([Cl])[Cl] [FeCl3] | 0.55 | 3.4 | – | – | – | reduction potential E^0 [2]: 0.55 V vs. Ag/AgCl; Diffusion Coefficient (Do) [1]: 7.55 10^−6 cm^2 s^−1; heterogeneous reduction rate constant k^0 ([1]; glassy carbon, 3 M HCl): 3.4e-06 cm/s |
| O=C([O-])CN(CCN(CC(=O)[O-])CC(=O)[O-])CCN(CC(=O)[O-])CC(=O)[O-].[Fe+3].[K+].[K+] [FeDTPA K2] | −0.15 | 15.5 | – | – | – | Diffusion Coefficient (Do) [1]: 2.41 10^−6 cm^2 s^−1; maximum solubility / highest concentration cycled ([5]; pH 9, 20° C., limited by viscosity): 1350 mM; Max Solubility at RT ([5]; room temperature): 1350 mM |
| O=C([O-])CN(CCN(CC(=O)[O-])CC(=O)[O-])CC(=O)[O-].[Fe+3].[Na+] [FeEDTA] | – | – | 14.33 | 25.10 | Dimerizes | – |
| O=C([O-])CN(CCO)CCN(CC(=O)[O-])CC(=O)[O-].[Fe+3] [FeHEDTA] | – | – | 12.2 | 19.7 | Dimerizes | – |
| Mn EDTA | – | – | – | – | – | RFB Electrolyte solubility ([6]; pH 3): 400 mM; RFB Electrolyte solubility ([6]; pH 4.5): 400 mM; RFB Electrolyte solubility ([6]; pH 6): 400 mM; RFB Electrolyte solubility ([6]; pH 6.6): 400 mM; RFB Electrolyte solubility ([6]; pH 8.0): 400 mM |
